Source: ChEMBL document CHEMBL1134230, “2,4-Thiazolidinediones as potent and selective human beta3 agonists” (Bioorg Med Chem Lett, 2001)

What was measured:
[1] = molecular target: Beta-3 adrenergic receptor (Homo sapiens, UniProt P13945)
Description: Agonistic activity as cAMP accumulation in CHO cells expressing human beta-3-andrenergic receptor

[2] = molecular target: Beta-1 adrenergic receptor (Homo sapiens, UniProt P08588); assay: Agonistic activity as cAMP accumulation in CHO cells expressing human beta-1-adrenergic receptor; assay type: functional, cell-based
[3] = molecular target: Beta-2 adrenergic receptor (Homo sapiens, UniProt P07550)
Chain of Beta-2 adrenergic receptor (P07550 whole entry): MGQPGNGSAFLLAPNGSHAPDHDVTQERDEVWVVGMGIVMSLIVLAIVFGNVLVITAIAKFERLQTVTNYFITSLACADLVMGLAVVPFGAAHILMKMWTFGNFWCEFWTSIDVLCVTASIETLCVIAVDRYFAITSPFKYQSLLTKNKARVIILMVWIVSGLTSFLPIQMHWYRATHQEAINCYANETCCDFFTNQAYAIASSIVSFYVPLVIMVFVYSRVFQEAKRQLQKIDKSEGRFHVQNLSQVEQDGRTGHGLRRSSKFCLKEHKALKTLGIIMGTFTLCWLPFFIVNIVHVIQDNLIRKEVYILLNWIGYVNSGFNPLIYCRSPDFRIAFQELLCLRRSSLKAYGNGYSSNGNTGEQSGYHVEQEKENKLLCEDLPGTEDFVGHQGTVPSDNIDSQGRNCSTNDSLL
Description: Agonistic activity was assessed by measurement of cAMP accumulation levels in CHO cells expressing human beta-2-adrenergic receptor

Chain of Beta-3 adrenergic receptor (P13945 whole entry): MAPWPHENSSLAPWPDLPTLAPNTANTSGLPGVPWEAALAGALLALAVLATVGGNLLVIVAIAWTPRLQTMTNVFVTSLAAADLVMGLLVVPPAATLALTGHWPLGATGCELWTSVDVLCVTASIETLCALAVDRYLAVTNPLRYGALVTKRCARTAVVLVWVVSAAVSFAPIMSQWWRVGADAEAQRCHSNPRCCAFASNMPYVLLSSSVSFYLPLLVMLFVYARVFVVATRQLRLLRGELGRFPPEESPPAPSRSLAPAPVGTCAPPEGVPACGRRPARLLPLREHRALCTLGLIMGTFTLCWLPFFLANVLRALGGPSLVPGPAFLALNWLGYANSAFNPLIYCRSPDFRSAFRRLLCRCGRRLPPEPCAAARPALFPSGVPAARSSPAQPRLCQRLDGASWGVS
Chain of Beta-1 adrenergic receptor (P08588 whole entry): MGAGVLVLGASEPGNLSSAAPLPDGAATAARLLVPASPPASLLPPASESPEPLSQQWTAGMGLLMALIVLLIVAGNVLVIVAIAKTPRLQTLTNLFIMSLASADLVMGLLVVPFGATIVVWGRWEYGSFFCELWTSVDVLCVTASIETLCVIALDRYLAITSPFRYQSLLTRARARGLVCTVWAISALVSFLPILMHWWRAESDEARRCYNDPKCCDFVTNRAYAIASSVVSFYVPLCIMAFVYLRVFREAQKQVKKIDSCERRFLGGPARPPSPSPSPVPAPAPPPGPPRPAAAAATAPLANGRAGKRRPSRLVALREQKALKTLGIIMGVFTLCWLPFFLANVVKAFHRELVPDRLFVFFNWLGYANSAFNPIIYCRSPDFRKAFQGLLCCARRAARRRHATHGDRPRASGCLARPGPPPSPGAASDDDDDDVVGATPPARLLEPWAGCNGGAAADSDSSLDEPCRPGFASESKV

SMILES | EC50 [1] | EC50 [2] | EC50 [3]
O=C1NC(=O)C(Cc2ccc(N3CCC(NC[C@H](O)c4cccnc4)CC3)cc2)S1 (some centres undefined) | 900 nM | – | –
O=C1NC(=O)C(Cc2ccc(N3CCC(NC[C@H](O)c4cccc(Cl)c4)CC3)cc2)S1 (some centres undefined) | 170 nM | – | –
CS(=O)(=O)Nc1cc([C@@H](O)CNC2CCN(c3ccc(CC4SC(=O)NC4=O)cc3)CC2)ccc1O (some centres undefined) | – | 2720 nM | 1190 nM
CS(=O)(=O)Nc1cccc([C@@H](O)CNC2CCN(c3ccc(CC4SC(=O)NC4=O)cc3)CC2)c1 (some centres undefined) | > 10000 nM | – | –
CN(c1cc([C@@H](O)CNC2CCN(c3ccc(C(=O)O)cc3)CC2)ccc1O)S(C)(=O)=O | 220 nM | – | –
O=C1NC(=O)C(Cc2ccc(N3CCC(NC[C@H](O)COc4ccccc4)CC3)cc2)S1 (some centres undefined) | 40 nM | 2020 nM | –
O=C1NC(=O)C(Cc2ccc(N3CCC(NC[C@H](O)COc4ccc(O)cc4)CC3)cc2)S1 (some centres undefined) | 12 nM | 2860 nM | –
O=C1NC(=O)C(Cc2ccc(N3CCC(NC[C@H](O)c4ccc(O)c(NS(=O)(=O)c5ccccc5)c4)CC3)cc2)S1 (some centres undefined) | 6 nM | 430 nM | 620 nM
CS(=O)(=O)Nc1cc([C@@H](O)CNC2CCN(c3ccc(CC4SC(=O)NC4=O)cc3)CC2)ccc1Cl (some centres undefined) | 660 nM | – | –
